From ChEMBL document CHEMBL4145553, “Design, synthesis, and biological evaluation of novel amide and hydrazide based thioether analogs targeting Histone deacteylase (HDAC) enzymes” (Eur J Med Chem, 2018)

Legend:
[1] = test system: A549; assay: Growth inhibition of human A549/ATCC cells assessed as cell growth at 10^-8 M incubated for 48 hrs by sulforhodamine B assay relative to control; type: functional; conditions: A549, 48 h, read-out: Activity
[2] = test system: NCI-H322M; assay: Growth inhibition of human NCI-H322M cells assessed as cell growth at 10^-8 M incubated for 48 hrs by sulforhodamine B assay relative to control; type: functional; conditions: read-out: Activity
[3] = test system: HCC 2998; assay: Growth inhibition of human HCC2998 cells assessed as cell growth at 10^-8 M incubated for 48 hrs by sulforhodamine B assay relative to control; type: functional; conditions: HCC 2998, 48 h, read-out: Activity
[4] = test system: RXF 393; assay: Growth inhibition of human RXF393 cells assessed as cell growth at 10^-8 M incubated for 48 hrs by sulforhodamine B assay relative to control; type: functional; conditions: RXF 393, 48 h, read-out: Activity
[5] = test system: TK-10; assay: Growth inhibition of human TK10 cells assessed as cell growth at 10^-8 M incubated for 48 hrs by sulforhodamine B assay relative to control; type: functional; conditions: TK-10, 48 h, read-out: Activity
[6] = test system: MCF7; assay: Growth inhibition of human MCF7 cells assessed as cell growth at 10^-8 M incubated for 48 hrs by sulforhodamine B assay relative to control; type: functional; conditions: MCF7, 48 h, read-out: Activity
[7] = test system: CCRF-CEM; assay: Growth inhibition of human CCRF-CEM cells assessed as cell growth at 10^-7 M incubated for 48 hrs by sulforhodamine B assay relative to control; type: functional; conditions: read-out: Activity
[8] = test system: EKVX; assay: Growth inhibition of human EKVX cells assessed as cell growth at 10^-7 M incubated for 48 hrs by sulforhodamine B assay relative to control; type: functional; conditions: read-out: Activity
[9] = test system: SNB-19; assay: Growth inhibition of human SNB19 cells assessed as cell growth at 10^-7 M incubated for 48 hrs by sulforhodamine B assay relative to control; type: functional; conditions: SNB-19, 48 h, read-out: Activity
[10] = test system: M14; assay: Growth inhibition of human M14 cells assessed as cell growth at 10^-7 M incubated for 48 hrs by sulforhodamine B assay relative to control; type: functional; conditions: M14, 48 h, read-out: Activity
[11] = test system: OVCAR-4; assay: Growth inhibition of human OVCAR4 cells assessed as cell growth at 10^-7 M incubated for 48 hrs by sulforhodamine B assay relative to control; type: functional; conditions: OVCAR-4, 48 h, read-out: Activity
[12] = test system: MCF7; assay: Growth inhibition of human MCF7 cells assessed as cell growth at 10^-7 M incubated for 48 hrs by sulforhodamine B assay relative to control; type: functional; conditions: MCF7, 48 h, read-out: Activity
[13] = test system: Hs-578T; assay: Growth inhibition of human Hs 578T cells assessed as cell growth at 10^-7 M incubated for 48 hrs by sulforhodamine B assay relative to control; type: functional; conditions: read-out: Activity
[14] = test system: RXF 393; assay: Growth inhibition of human RXF393 cells assessed as cell growth at 10^-6 M incubated for 48 hrs by sulforhodamine B assay relative to control; type: functional; conditions: RXF 393, 48 h, read-out: Activity
[15] = test system: SN12C; assay: Growth inhibition of human SN12C cells assessed as cell growth at 10^-6 M incubated for 48 hrs by sulforhodamine B assay relative to control; type: functional; conditions: read-out: Activity
[16] = test system: RXF 393; assay: Growth inhibition of human RXF393 cells assessed as cell growth at 10^-5 M incubated for 48 hrs by sulforhodamine B assay relative to control; type: functional; conditions: RXF 393, 48 h, read-out: Activity
[17] = test system: CCRF-CEM; assay: Growth inhibition of human CCRF-CEM cells assessed as cell growth at 10^-4 M incubated for 48 hrs by sulforhodamine B assay relative to control; type: functional; conditions: read-out: Activity
[18] = test system: NCI-H23; assay: Growth inhibition of human NCI-H23 cells assessed as cell growth at 10^-4 M incubated for 48 hrs by sulforhodamine B assay relative to control; type: functional; conditions: NCI-H23, 48 h, read-out: Activity
[19] = test system: IGROV-1; assay: Growth inhibition of human IGROV1 cells assessed as cell growth at 10^-4 M incubated for 48 hrs by sulforhodamine B assay relative to control; type: functional; conditions: IGROV-1, 48 h, read-out: Activity
[20] = test system: OVCAR-4; assay: Growth inhibition of human OVCAR4 cells assessed as cell growth at 10^-4 M incubated for 48 hrs by sulforhodamine B assay relative to control; type: functional; conditions: OVCAR-4, 48 h, read-out: Activity
[21] = test system: NCI/ADR-RES; assay: Growth inhibition of human NCI/ADR-RES cells assessed as cell growth at 10^-4 M incubated for 48 hrs by sulforhodamine B assay relative to control; type: functional; conditions: read-out: Activity
[22] = test system: SK-OV-3; assay: Growth inhibition of human SKOV3 cells assessed as cell growth at 10^-4 M incubated for 48 hrs by sulforhodamine B assay relative to control; type: functional; conditions: SK-OV-3, 48 h, read-out: Activity
[23] = test system: DU-145; assay: Growth inhibition of human DU145 cells assessed as cell growth at 10^-4 M incubated for 48 hrs by sulforhodamine B assay relative to control; type: functional; conditions: DU-145, 48 h, read-out: Activity
[24] = test system: KM12; assay: Growth inhibition of human KM12 cells incubated for 48 hrs by sulforhodamine B assay; type: functional; conditions: KM12, 48 h
[25] = test system: SF-539; assay: Growth inhibition of human SF539 cells incubated for 48 hrs by sulforhodamine B assay; type: functional; conditions: SF-539, 48 h
[26] = test system: MDA-MB-435; assay: Growth inhibition of human MDA-MB-435 cells incubated for 48 hrs by sulforhodamine B assay; type: functional; conditions: MDA-MB-435, 48 h
[27] = test system: OVCAR-8; assay: Growth inhibition of human OVCAR8 cells incubated for 48 hrs by sulforhodamine B assay; type: functional; conditions: OVCAR-8, 48 h
[28] = test system: DU-145; assay: Growth inhibition of human DU145 cells incubated for 48 hrs by sulforhodamine B assay; type: functional; conditions: DU-145, 48 h
[29] = test system: MDA-MB-468; assay: Growth inhibition of human MDA-MB-468 cells incubated for 48 hrs by sulforhodamine B assay; type: functional; conditions: MDA-MB-468, 48 h
[30] = test system: MDA-MB-435; assay: Cell cycle arrest in human MDA-MB-435 cells assessed as accumulation at G2-phase by propidium iodide staining based flow cytometry (reference value: 3.68%); type: functional
[31] = target: Histone deacetylase 1 (Homo sapiens, UniProt Q13547); assay: Inhibition of human HDAC1 by ELISA
[32] = read-out: LC50 (the source's name)
[33] = read-out: pLC50 (the source's name) (converted)

Sequence of Histone deacetylase 1 (Q13547 whole entry): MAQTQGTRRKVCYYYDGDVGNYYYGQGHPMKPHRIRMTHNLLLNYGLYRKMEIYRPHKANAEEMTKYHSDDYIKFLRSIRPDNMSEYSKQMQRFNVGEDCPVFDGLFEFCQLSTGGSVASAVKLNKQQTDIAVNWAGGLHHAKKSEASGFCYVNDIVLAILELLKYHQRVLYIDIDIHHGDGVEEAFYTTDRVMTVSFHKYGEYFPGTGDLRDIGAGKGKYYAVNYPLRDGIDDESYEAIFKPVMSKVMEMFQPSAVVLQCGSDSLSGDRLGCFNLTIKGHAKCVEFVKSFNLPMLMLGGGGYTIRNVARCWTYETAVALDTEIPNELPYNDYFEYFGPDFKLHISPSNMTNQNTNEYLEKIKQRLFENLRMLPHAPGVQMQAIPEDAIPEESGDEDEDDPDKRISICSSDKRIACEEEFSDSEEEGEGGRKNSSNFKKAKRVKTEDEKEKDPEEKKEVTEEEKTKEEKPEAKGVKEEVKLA

CCS/C(Nc1ccccc1)=C(\C#N)C(=O)N/N=C\c1ccc(Cl)cc1Cl
growth at 0.01 µM [1]: 97% | growth at 0.01 µM [2]: 94% | growth at 0.01 µM [3]: 101% | growth at 0.01 µM [4]: 93% | growth at 0.01 µM [5]: 93% | growth at 0.01 µM [6]: 97% | growth at 0.1 µM [7]: 95% | growth at 0.1 µM [8]: 88% | growth at 0.1 µM [9]: 94% | growth at 0.1 µM [10]: 93% | growth at 0.1 µM [11]: 89% | growth at 0.1 µM [12]: 89% | growth at 0.1 µM [13]: 92% | growth at 1 µM [14]: 75% | growth at 1 µM [15]: 96% | growth at 10 µM [16]: -5% | growth at 100 µM [17]: 11% | growth at 100 µM [18]: 36% | growth at 100 µM [19]: 30% | growth at 100 µM [20]: 9% | growth at 100 µM [21]: 11% | growth at 100 µM [22]: 12% | growth at 100 µM [23]: 8% | GI50 ([24]; read-out: GI50): 4.04 µM | CC50 [24, 32]: > 100 µM | TGI ([24]; read-out: TGI): > 100 µM | GI50 ([24]; read-out: pGI50 (converted)): 4.07 µM | CC50 [24, 33]: > 100 µM | TGI ([24]; read-out: pTGI): > 100 µM | GI50 ([25]; read-out: GI50): 2890 nM | CC50 [25, 32]: > 100 µM | TGI ([25]; read-out: TGI): 20.6 µM | GI50 ([25]; read-out: pGI50 (converted)): 2880 nM | CC50 [25, 33]: > 100 µM | TGI ([25]; read-out: pTGI (converted)): 20.4 µM | GI50 ([26]; read-out: GI50): 419 nM | CC50 [26, 32]: 9.26 µM | TGI ([26]; read-out: TGI): 2230 nM | GI50 ([26]; read-out: pGI50 (converted)): 417 nM | CC50 [26, 33]: 9.33 µM | TGI ([26]; read-out: pTGI (converted)): 2240 nM | GI50 ([27]; read-out: GI50): 4.81 µM | CC50 [27, 32]: > 100 µM | TGI ([27]; read-out: TGI): > 100 µM | GI50 ([27]; read-out: pGI50 (converted)): 4.79 µM | CC50 [27, 33]: > 100 µM | TGI ([27]; read-out: pTGI): > 100 µM | GI50 ([28]; read-out: GI50): 3.57 µM | CC50 [28, 32]: > 100 µM | TGI ([28]; read-out: TGI): > 100 µM | GI50 ([28]; read-out: pGI50 (converted)): 3.55 µM | CC50 [28, 33]: > 100 µM | TGI ([28]; read-out: pTGI (converted)): > 100 µM | GI50 ([29]; read-out: GI50): 2600 nM | CC50 [29, 32]: > 100 µM | TGI ([29]; read-out: TGI): 9.19 µM | GI50 ([29]; read-out: pGI50 (converted)): 2630 nM | CC50 [29, 33]: > 100 µM | TGI ([29]; read-out: pTGI (converted)): 9.12 µM | Activity [30]: 12.4% | IC50 [31]: 70 nM

CCS/C(Nc1ccccc1)=C(\C#N)C(=O)Nc1ccc(OC)cc1
growth at 0.01 µM [1]: 95% | growth at 0.01 µM [2]: 95% | growth at 0.01 µM [3]: 102% | growth at 0.01 µM [4]: 106% | growth at 0.01 µM [5]: 104% | growth at 0.01 µM [6]: 98% | growth at 0.1 µM [7]: 83% | growth at 0.1 µM [8]: 81% | growth at 0.1 µM [9]: 95% | growth at 0.1 µM [10]: 93% | growth at 0.1 µM [11]: 88% | growth at 0.1 µM [12]: 93% | growth at 0.1 µM [13]: 96% | growth at 1 µM [14]: 82% | growth at 1 µM [15]: 96% | growth at 10 µM [16]: -10% | growth at 100 µM [17]: 7% | growth at 100 µM [18]: 21% | growth at 100 µM [19]: 28% | growth at 100 µM [20]: 29% | growth at 100 µM [21]: 10% | growth at 100 µM [22]: -4% | growth at 100 µM [23]: -6% | GI50 ([24]; read-out: GI50): 2.8 µM | CC50 [24, 32]: > 100 µM | TGI ([24]; read-out: TGI): > 100 µM | GI50 ([24]; read-out: pGI50 (converted)): 2.82 µM | CC50 [24, 33]: > 100 µM | TGI ([24]; read-out: pTGI): > 100 µM | GI50 ([25]; read-out: GI50): 1960 nM | CC50 [25, 32]: 52.9 µM | TGI ([25]; read-out: TGI): 4.81 µM | GI50 ([25]; read-out: pGI50 (converted)): 1950 nM | CC50 [25, 33]: 52.5 µM | TGI ([25]; read-out: pTGI (converted)): 4.79 µM | GI50 ([26]; read-out: GI50): 370 nM | CC50 [26, 32]: > 100 µM | TGI ([26]; read-out: TGI): 1890 nM | GI50 ([26]; read-out: pGI50 (converted)): 372 nM | CC50 [26, 33]: > 100 µM | TGI ([26]; read-out: pTGI (converted)): 1910 nM | GI50 ([27]; read-out: GI50): 4.37 µM | CC50 [27, 32]: > 100 µM | TGI ([27]; read-out: TGI): > 100 µM | GI50 ([27]; read-out: pGI50 (converted)): 4.37 µM | CC50 [27, 33]: > 100 µM | TGI ([27]; read-out: pTGI): > 100 µM | GI50 ([28]; read-out: GI50): 3.48 µM | CC50 [28, 32]: > 100 µM | TGI ([28]; read-out: TGI): 49.8 µM | GI50 ([28]; read-out: pGI50 (converted)): 3.47 µM | CC50 [28, 33]: > 100 µM | TGI ([28]; read-out: pTGI (converted)): 50.1 µM | GI50 ([29]; read-out: GI50): 1390 nM | CC50 [29, 32]: > 100 µM | TGI ([29]; read-out: TGI): 7.51 µM | GI50 ([29]; read-out: pGI50 (converted)): 1380 nM | CC50 [29, 33]: > 100 µM | TGI ([29]; read-out: pTGI (converted)): 7.59 µM | Activity [30]: 16.44% | IC50 [31]: 38 nM
